Measured values as given in patent publication US10106557B2, “Preparation method for benzoxazoleoxazine ketone compound and intermediate and crystal form thereof” (NORTH CHINA PHARMACEUTICAL NEW DRUG R & D CO., LTD., priority 2014, dated 2018).
pKi: −log10 of the molar value.

Columns and labels:
Type in all cases: biochemical
[1] = biological target: rat coagulation factor Xa (Rattus norvegicus (Rat), UniProt Q63207); assay: Rat coagulation factor Xa chromogenic assay; conditions: purified enzyme, substrate S-2222, 37° C.; Ki from IC50 by Cheng-Prusoff; read-out: rfXa Ki
rat coagulation factor Xa, sequence (Q63207 232-482): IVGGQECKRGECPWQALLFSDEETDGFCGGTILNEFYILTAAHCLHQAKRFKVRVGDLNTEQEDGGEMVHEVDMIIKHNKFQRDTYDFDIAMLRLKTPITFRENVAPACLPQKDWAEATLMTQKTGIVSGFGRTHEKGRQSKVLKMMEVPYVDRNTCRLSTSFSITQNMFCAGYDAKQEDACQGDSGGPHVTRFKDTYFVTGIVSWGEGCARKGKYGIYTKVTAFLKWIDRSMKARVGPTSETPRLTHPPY
rat coagulation factor Xa, sequence (Q63207 41-180): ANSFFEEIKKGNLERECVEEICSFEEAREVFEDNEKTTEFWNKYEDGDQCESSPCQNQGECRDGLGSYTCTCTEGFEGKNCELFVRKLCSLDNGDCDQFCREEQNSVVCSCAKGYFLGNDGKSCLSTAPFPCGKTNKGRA
Experimental: (§1) The inhibitory ability of the compounds to be tested on Xa factor or other enzymes, such as thrombin or trypsin, in human or rats were determined by IC50 values, wherein the IC50 value was associated with the inhibition constant Ki. The purified enzyme was used in the chromogenic determination. […] By plotting a curve regarding the relative velocity of the hydrolysis (compared to the control group which was free of inhibition) on the logarithm of the concentration of the compounds and linear regression calculation, the concentration of the inhibitor leading to a 50% reduction of the rate of the hydrolysis of the substrate was determined. The enzyme inhibition constant (Ki) was calculated according to Cheng-Prusoff equation: Ki=IC50/(1+[S]/Km), where [S] was the substrate concentration and Km was the meter-Mann's constant determined by the double reciprocal mapping method. The IC50 values of the compounds were obtained by GraphPad Prism software. The curve is fitted by using the “shaped dose effect (variable slope)”.
The inhibitory activity on coagulation factor Xa activity in human or rats was measured by using Tris-HCl buffer (50 mM, pH 8.3, 150 mM NaCl).

[2] = biological target: human coagulation factor Xa (Homo sapiens (Human), UniProt P00742); assay: Human coagulation factor Xa chromogenic assay; conditions: purified enzyme, substrate S-2222, 37° C.; Ki from IC50 by Cheng-Prusoff; read-out: hfXa Ki
human coagulation factor Xa, sequence (P00742 235-488): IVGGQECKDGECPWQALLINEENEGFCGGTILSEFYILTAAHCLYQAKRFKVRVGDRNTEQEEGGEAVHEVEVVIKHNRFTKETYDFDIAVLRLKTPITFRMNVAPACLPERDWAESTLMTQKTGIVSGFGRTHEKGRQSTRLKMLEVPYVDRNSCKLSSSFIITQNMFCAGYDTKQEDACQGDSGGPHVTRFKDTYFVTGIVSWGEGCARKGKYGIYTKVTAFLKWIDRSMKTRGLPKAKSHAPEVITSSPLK
human coagulation factor Xa, sequence (P00742 41-179): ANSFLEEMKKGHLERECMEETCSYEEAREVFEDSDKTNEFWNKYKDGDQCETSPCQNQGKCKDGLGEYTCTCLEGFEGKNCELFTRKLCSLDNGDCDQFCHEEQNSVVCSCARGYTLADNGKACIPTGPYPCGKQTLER
Experimental: (§2) The inhibitory ability of the compounds to be tested on Xa factor or other enzymes, such as thrombin or trypsin, in human or rats were determined by IC50 values, wherein the IC50 value was associated with the inhibition constant Ki. The purified enzyme was used in the chromogenic determination. The initial rate of hydrolysis of the chromogenic substrate was determined by the variation of absorbance at 405 nm in the linear part on time (usually 2 to 10 minutes after the addition of the substrate) at 37° C. by using FlexStation III (USA Molecular Instruments). By plotting a curve regarding the relative velocity of the hydrolysis (compared to the control group which was free of inhibition) on the logarithm of the concentration of the compounds and linear regression calculation, the concentration of the inhibitor leading to a 50% reduction of the rate of the hydrolysis of the substrate was determined. The enzyme inhibition constant (Ki) was calculated according to Cheng-Prusoff equation: Ki=IC50/(1+[S]/Km), where [S] was the substrate concentration and Km was the meter-Mann's constant determined by the double reciprocal mapping method. The IC50 values of the compounds were obtained by GraphPad Prism software. The curve is fitted by using the “shaped dose effect (variable slope)”.
The inhibitory activity on coagulation factor Xa activity in human or rats was measured by using Tris-HCl buffer (50 mM, pH 8.3, 150 mM NaCl). […] The buffer containing 2 μL 2% (V/V) DMSO (control group which was free of inhibition) or various concentrations of the compounds to be tested were diluted in the buffer containing 2% (V/V) DMSO, and 48 μL buffer of the supporting base S-2222 (Chromogenix; chemical formula: Bz-IIe-Glu(γ-OR)-Gly-Arg-pNA.HCl R═H (50%), wherein R═CH3 (50%)) was added, the final concentration was 0.172 mM.

human thrombin = human thrombin (Homo sapiens (Human), UniProt P00734); assay: Human thrombin assay; conditions: substrate S-2238; Ki from IC50 by Cheng-Prusoff
Experimental: as §2
The inhibitory activity on human thrombin was determined by using a buffer (10 mM HEPES buffer, pH 7.4, 2 mM CaCl2). Appropriate wells in the Greiner 384 microtiter plate were used to determine IC50. A buffer contained 50 μL human thrombin (Sigma; T8885), the final concentration of which was 0.05 NIH unit/mL. A buffer containing 2 μL 2% (V/V) DMSO (control group which was free of inhibition) or various concentration of the compound to be tested was diluted in the buffer containing 2% (V/V) DMSO. A buffer containing 48 μL substrate S-2238 (Chromogenix; Chemical formula: H-D-Phe-Pip-Arg-pNA.2HCl) was added, the final concentration was 30 μM. In this assay, the compound to be tested and the enzyme were pre-incubated for 10 minutes, the substrate was added to give a final volume of 100 μL to start the assay.

human trypsin = assay: Human trypsin assay; conditions: substrate S-2222; Ki from IC50 by Cheng-Prusoff
Experimental: as §2
The inhibitory activity on human trypsin was determined by using buffer (50 mM Tris, pH 8.2, and 20 mM CaCl2). Appropriate wells in the Greiner 384 microtiter plate were used to determine IC50. A buffer containing 50 μL human trypsin (Sigma; T6424), the final concentration was 0.39 BAEE unit/mL, a buffer containing 2 μL 2% (V/V) DMSO (control group which was free of inhibition) or various concentration of the compound to be tested was diluted in the buffer containing 2% (V/V) DMSO. A buffer containing substrate S-2222 (Chromogenix), the final concentration was 30 μM. In this assay, the compound to be tested and the enzyme were pre-incubated for 10 minutes and then 48 μL substrate was added to give a final volume of 100 μL to start the assay.

prothrombinase = prothrombinase (Homo sapiens (Human), UniProt P00742); assay: Prothrombin assay (prothrombinase, thrombin production); conditions: human factor Xa, human blood platelets, substrate S-2238
prothrombinase, sequence (P00742 235-488): as the sequence (P00742 235-488) above
prothrombinase, sequence (P00742 41-179): as the sequence (P00742 41-179) above
prothrombinase, sequence (P12259 29-737 partner): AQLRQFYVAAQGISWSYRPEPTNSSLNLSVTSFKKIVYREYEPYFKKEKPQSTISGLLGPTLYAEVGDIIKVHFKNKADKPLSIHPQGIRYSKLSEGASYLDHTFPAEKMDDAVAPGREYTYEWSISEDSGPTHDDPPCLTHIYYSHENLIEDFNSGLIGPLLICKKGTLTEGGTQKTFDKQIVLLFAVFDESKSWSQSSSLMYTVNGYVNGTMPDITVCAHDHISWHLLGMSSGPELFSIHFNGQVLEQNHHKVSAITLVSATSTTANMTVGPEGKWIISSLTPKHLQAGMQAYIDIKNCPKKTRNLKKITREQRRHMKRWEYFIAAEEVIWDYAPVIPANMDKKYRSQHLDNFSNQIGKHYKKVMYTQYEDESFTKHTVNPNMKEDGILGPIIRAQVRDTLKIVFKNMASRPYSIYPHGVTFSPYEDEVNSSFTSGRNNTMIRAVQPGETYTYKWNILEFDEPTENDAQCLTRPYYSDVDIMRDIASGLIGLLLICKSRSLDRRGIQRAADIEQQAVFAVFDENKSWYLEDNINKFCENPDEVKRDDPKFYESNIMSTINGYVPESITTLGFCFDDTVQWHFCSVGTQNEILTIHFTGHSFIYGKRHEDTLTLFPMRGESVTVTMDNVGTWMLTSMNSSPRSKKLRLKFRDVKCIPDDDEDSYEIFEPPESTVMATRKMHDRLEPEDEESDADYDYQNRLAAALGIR
prothrombinase, sequence (P12259 1574-2224 partner): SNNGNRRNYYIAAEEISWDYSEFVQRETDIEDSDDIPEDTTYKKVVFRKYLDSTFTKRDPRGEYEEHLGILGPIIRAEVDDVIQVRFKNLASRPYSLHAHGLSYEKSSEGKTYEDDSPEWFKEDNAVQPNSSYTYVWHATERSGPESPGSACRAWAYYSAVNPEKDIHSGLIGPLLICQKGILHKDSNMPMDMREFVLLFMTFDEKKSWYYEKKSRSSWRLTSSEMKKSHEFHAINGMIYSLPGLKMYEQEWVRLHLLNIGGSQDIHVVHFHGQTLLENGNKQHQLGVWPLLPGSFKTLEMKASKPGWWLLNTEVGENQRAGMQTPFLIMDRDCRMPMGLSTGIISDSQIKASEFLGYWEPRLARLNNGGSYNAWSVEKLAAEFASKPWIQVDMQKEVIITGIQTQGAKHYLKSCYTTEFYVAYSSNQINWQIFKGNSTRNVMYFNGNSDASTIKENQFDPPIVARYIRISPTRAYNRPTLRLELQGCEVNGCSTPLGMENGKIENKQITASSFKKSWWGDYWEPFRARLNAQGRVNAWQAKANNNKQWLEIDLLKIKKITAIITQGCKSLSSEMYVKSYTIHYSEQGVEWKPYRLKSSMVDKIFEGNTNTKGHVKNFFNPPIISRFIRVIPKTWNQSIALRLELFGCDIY
Experimental: as §1
The activity of the compound to be tested against prothrombinase was determined by the production of thrombin. In summary, 12.5 μL human factor Xa was incubated in 10 mM HEPES buffer and pH 7.4, 2 mM CaCl2, the final concentration was 0.5 nM, and 12.5 μL human blood platelets (1×10^7 mL^−1) was added at 37° C. After 10 mins, 25 μL prothrombin was added to initiate the reaction, the final concentration was 0.5 μM, a buffer containing 2 μL 2% (V/V) DMSO (control group which was free of inhibition) or various concentration of the compound was diluted in the buffer containing 2% (V/V) DMSO.

SMILES | pKi [1] | pKi [2] | pKi (human thrombin) | pKi (human trypsin) | pKi (prothrombinase)
O=C(NC[C@@H]1OC(=O)N2c3ccc(N4CCOCC4=O)cc3OC[C@@H]12)c1ccc(Cl)s1 [Compound 1, 5-chloro-N-(((3S,3aS)-1-one-7-(3-ketomorpholine)-1,3,3a,4-tetrahydrobenzo[b]oxazolo[3,4-d][1,4]oxazin-3-yl)methyl)thiophene-2-carboxamide] | 8.54 | 9.00 | < 6.00 | < 4.70 | 9.33
O=C(NC[C@@H]1OC(=O)N2c3ccc(N4CCCCC4=O)cc3OC[C@@H]12)c1ccc(Cl)s1 [Compound 2] | 8.35 |  | < 6.00 | < 4.70 | 
O=C(NC[C@@H]1OC(=O)N2c3ccc(N4CCCNC4=O)cc3OC[C@@H]12)c1ccc(Cl)s1 [Compound 7] | 7.78 | 8.38 | < 6.00 | < 4.70 | 8.36
O=C(NC[C@@H]1OC(=O)N2c3ccc(-n4ccccc4=O)cc3OC[C@@H]12)c1ccc(Cl)s1 [Compound 8] | 8.50 | 8.72 | < 6.00 | < 4.70 | 9.05

Results, then the compound that gave them:

pKi [1] | pKi [2] | pKi (human thrombin) | pKi (human trypsin) | pKi (prothrombinase) | SMILES
7.67 | 8.01 | < 6.00 | < 4.70 | 7.79 | COC[C@H]1CCCN1c1ccc2c(c1)OC[C@H]1[C@H](CNC(=O)c3ccc(Cl)s3)OC(=O)N21 [Compound 30]
 | 6.97 |  |  |  | O=C(NC[C@@H]1OC(=O)N2c3ccc(-n4cncn4)cc3OC[C@@H]12)c1ccc(Cl)s1 [Compound 34]
